Consider 16 compounds from US20260317299A1, “PIKFYVE PROTEIN KINASE DEGRADATION AGENT AND USE THEREOF” (Shanghai Institute of Organic Chemistry, Chinese Academy of …, priority 2023, published 2026).

In the assay the target is T1, PIKfyve (Homo sapiens, UniProt Q9Y2I7).
T1 construct: endogenous in cells; host or cells: VCaP
T1 sequence (Q9Y2I7 whole entry): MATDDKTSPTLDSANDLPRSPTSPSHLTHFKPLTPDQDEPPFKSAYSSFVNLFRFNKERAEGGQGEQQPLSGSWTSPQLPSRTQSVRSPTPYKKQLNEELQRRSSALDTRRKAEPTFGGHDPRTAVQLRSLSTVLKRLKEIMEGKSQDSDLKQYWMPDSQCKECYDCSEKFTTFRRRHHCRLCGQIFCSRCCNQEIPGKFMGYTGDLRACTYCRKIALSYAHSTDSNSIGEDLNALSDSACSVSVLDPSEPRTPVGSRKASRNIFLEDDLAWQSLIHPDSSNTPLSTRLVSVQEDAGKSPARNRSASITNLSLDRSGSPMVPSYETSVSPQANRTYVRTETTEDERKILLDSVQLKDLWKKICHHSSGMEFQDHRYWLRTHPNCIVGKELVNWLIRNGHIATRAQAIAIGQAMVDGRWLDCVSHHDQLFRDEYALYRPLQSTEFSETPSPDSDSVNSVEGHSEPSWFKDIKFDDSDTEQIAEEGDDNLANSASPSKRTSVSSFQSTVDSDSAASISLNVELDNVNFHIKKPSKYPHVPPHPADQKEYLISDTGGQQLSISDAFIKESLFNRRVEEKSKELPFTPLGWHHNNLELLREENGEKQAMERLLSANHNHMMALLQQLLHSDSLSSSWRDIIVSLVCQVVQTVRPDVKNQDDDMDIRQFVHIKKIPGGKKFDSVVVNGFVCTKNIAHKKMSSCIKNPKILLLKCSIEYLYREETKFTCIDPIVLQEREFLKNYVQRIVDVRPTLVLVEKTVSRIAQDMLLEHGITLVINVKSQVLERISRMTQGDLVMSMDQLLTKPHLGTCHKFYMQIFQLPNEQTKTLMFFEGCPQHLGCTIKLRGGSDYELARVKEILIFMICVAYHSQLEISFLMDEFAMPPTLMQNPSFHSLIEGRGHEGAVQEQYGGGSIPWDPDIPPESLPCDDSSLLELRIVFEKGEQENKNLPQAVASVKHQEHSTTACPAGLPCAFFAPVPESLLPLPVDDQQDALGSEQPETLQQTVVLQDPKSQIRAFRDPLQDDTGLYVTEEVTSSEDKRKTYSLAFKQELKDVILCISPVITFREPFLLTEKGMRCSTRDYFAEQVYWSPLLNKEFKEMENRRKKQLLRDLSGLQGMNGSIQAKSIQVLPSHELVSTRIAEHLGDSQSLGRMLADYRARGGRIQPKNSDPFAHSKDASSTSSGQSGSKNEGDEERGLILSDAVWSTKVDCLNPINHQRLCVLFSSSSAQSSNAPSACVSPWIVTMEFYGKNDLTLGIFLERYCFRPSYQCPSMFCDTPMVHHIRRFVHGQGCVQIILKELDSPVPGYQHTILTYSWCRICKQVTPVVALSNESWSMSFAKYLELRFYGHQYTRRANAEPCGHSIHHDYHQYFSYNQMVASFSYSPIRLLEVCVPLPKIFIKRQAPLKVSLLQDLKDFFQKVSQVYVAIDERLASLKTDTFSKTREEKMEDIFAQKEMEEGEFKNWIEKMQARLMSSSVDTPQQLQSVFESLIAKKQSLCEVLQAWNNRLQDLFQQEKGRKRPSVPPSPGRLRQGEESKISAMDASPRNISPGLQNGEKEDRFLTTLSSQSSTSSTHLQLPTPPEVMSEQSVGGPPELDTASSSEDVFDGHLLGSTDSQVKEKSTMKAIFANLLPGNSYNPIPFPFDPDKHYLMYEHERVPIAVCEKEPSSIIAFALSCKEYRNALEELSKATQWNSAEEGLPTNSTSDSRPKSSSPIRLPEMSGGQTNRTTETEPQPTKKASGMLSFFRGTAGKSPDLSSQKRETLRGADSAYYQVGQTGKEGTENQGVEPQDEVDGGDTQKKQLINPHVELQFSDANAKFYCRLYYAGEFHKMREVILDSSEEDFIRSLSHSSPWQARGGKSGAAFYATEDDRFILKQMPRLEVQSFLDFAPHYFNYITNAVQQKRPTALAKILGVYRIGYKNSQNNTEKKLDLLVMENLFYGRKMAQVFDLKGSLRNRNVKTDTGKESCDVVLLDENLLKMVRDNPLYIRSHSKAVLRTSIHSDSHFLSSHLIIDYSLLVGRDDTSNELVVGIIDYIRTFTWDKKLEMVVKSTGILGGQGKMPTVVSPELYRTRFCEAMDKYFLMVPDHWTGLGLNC
Briefly: Degradation of PIKfyve proteins in VCaP tumor cells (24 h, Western blot). Type of assay: cell-based. The following applies: 37° C., compared with DMSO control, WB, read-out: DC50 (concentration that achieves 50% degradation activity). In outline:
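VCaP cells (5×10^6 cells/ml) treated with a range of compound concentrations at 37° C for 24 h, then lysed in SDS buffer. PIKfyve level measured by Western blot with GAPDH as loading control and ECL detection. DC50 is the concentration giving 50% degradation relative to DMSO control.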
In general terms: Immunoblotting shows a protein as a band on a membrane.
Turning to `Cc1cccc(-c2ccn(-c3cc(N4CCOCC4)nc(OCCc4ccc(C#CC5CCN(C(=O)CCCC[C@H](NC(=O)[C@@H]6C[C@@H](O)CN6C(=O)[C@@H](NC(=O)C6(F)CC6)C(C)(C)C)c6ccc(-c7scnc7C)cc6)CC5)cc4)n3)n2)c1` [Example 72, (2S,4R)-1-((S)-2-(1-fluorocyclopropane-1-carboxamido)-3,3-dimethylbutanoyl)-4-hydroxy-N—((S)-1-(4-(4-methylthiazol-5-yl)phenyl)-6-(4-((4-(2-((4-morpholino-6-(3-(m-tolyl)-1H-pyrazol-1-yl)pyrimidin-2-yl)oxy)ethyl)phenyl)ethynyl)piperidin-1-yl)-6-oxohexyl) pyrrolidine-2-carboxamide], the DC50 is 1 to 100 nM.
For the compound `Cc1cccc(-c2ccn(-c3cc(N4CCOCC4)nc(OC4CCN(c5ccc(CN6CCN(c7cc8c(cc7F)C(=O)N(C7CCC(=O)NC7=O)C8=O)CC6)cc5)CC4)n3)n2)c1` (stereo not shown) [Example 95, 2-(2,6-Dioxopiperidin-3-yl)-5-fluoro-6-(4-(4-(4-((4-morpholino-6-(3-(m-tolyl)-1H-pyrazol-1-yl)pyrimidin-2-yl)oxy)piperidin-1-yl)benzyl)piperazin-1-yl)isoindoline-1,3-dione], the DC50 lay within 100 to 10000 nM.
Under `Cc1cccc(-c2ccn(-c3cc(N4CCOCC4)nc(OCCc4ccc(N5CCN(C(=O)CC[C@H](NC(=O)[C@@H]6C[C@@H](O)CN6C(=O)[C@@H](NC(=O)C6(F)CC6)C(C)(C)C)c6ccc(-c7scnc7C)cc6)CC5)cc4)n3)n2)c1` [Example 76, (2S,4R)-1-((S)-2-(1-fluorocyclopropane-1-carboxamido)-3,3-dimethylbutanoyl)-4-hydroxy-N—((S)-1-(4-(4-methylthiazol-5-yl)phenyl)-4-(4-(4-(2-((4-morpholino-6-(3-(m-tolyl)-1H-pyrazol-1-yl)pyrimidin-2-yl)oxy)ethyl)phenyl)piperazin-1-yl)-4-oxobutyl)pyrrolidine-2-carboxamide] stands 1 to 100 nM.
Take `Cc1cccc(-c2ccn(-c3cc(N4CCOCC4)nc(OCCc4ccc(C#CC5CCN(c6cc7c(cc6F)C(=O)N(C6CCC(=O)NC6=O)C7=O)CC5)cc4)n3)n2)c1` (stereo not shown) [Example 90, 2-(2,6-Dioxopiperidin-3-yl)-5-fluoro-6-(4-((4-(2-((4-morpholino-6-(3-(m-tolyl)-1H-pyrazol-1-yl)pyrimidin-2-yl)oxy)ethyl)phenyl)ethynyl)piperidin-1-yl)isoindoline-1,3-dione]: the DC50 is 100 to 10000 nM.
The value for `Cc1cccc(-c2ccn(-c3cc(N4CCOCC4)nc(OC4CCN(c5ccc(NC(=O)NC6CCN(C(=O)CC[C@H](NC(=O)[C@@H]7C[C@@H](O)CN7C(=O)[C@@H](NC(=O)C7(F)CC7)C(C)(C)C)c7ccc(-c8scnc8C)cc7)CC6)cc5)CC4)n3)n2)c1` [Example 83, (2S,4R)-1-((S)-2-(1-fluorocyclopropane-1-carboxamido)-3,3-dimethylbutanoyl)-4-hydroxy-N—((S)-1-(4-(4-methylthiazol-5-yl)phenyl)-4-(4-(3-(4-(4-((4-morpholino-6-(3-(m-tolyl)-1H-pyrazol-1-yl)pyrimidin-2-yl)oxy)piperidin-1-yl)phenyl)ureido)piperidin-1-yl)-4-oxobutyl)pyrrolidine-2-carboxamide] was 1 to 100 nM; that for `Cc1cccc(-c2ccn(-c3cc(N4CCOCC4)nc(OC4CCN(c5ccc(N6CCN(C(=O)C[C@H](NC(=O)[C@@H]7C[C@@H](O)CN7C(=O)[C@@H](NC(=O)C7(F)CC7)C(C)(C)C)c7ccc(-c8scnc8C)cc7)CC6)cc5)CC4)n3)n2)c1` [Example 84, (2S,4R)-1-((S)-2-(1-fluorocyclopropane-1-carboxamido)-3,3-dimethylbutanoyl)-4-hydroxy-N—((S)-1-(4-(4-methylthiazol-5-yl)phenyl)-3-(4-(4-(4-((4-morpholino-6-(3-(m-tolyl)-1H-pyrazol-1-yl)pyrimidin-2-yl)oxy)piperidin-1-yl)phenyl)piperazin-1-yl)-3-oxopropyl) pyrrolidine-2-carboxamide] was 1 to 100 nM.
With `Cc1cccc(-c2ccn(-c3cc(N4CCOCC4)nc(OCCc4ccc(NC(=O)NC5CCN(C(=O)CC[C@H](NC(=O)[C@@H]6C[C@@H](O)CN6C(=O)[C@@H](NC(=O)C6(F)CC6)C(C)(C)C)c6ccc(-c7scnc7C)cc6)CC5)cc4)n3)n2)c1` [Example 79, (2S,4R)-1-((S)-2-(1-fluorocyclopropane-1-carboxamido)-3,3-dimethylbutanoyl)-4-hydroxy-N—((S)-1-(4-(4-methylthiazol-5-yl)phenyl)-4-(4-(3-(4-(2-((4-morpholino-6-(3-(m-tolyl)-1H-pyrazol-1-yl)pyrimidin-2-yl)oxy)ethyl)phenyl)ureido)piperidin-1-yl)-4-oxobutyl) pyrrolidine-2-carboxamide], the DC50 is 1 to 100 nM.
`Cc1cccc(-c2ccn(-c3cc(N4CCOCC4)nc(OC4CCN(c5ccc(NC(=O)NC6CN(C(=O)C[C@H](NC(=O)[C@@H]7C[C@@H](O)CN7C(=O)[C@@H](NC(=O)C7(F)CC7)C(C)(C)C)c7ccc(-c8scnc8C)cc7)C6)cc5)CC4)n3)n2)c1` [Example 80, (2S,4R)-1-((S)-2-(1-fluorocyclopropane-1-carboxamido)-3,3-dimethylbutanoyl)-4-hydroxy-N—((S)-1-(4-(4-methylthiazol-5-yl)phenyl)-3-(3-(3-(4-(4-((4-morpholino-6-(3-(m-tolyl)-1H-pyrazol-1-yl)pyrimidin-2-yl)oxy)piperidin-1-yl)phenyl)ureido)azetidin-1-yl)-3-oxopropyl)pyrrolidine-2-carboxamide]: the DC50 was in the range of 1 to 100 nM.
`Cc1cccc(/C=N/Nc2cc(N3CCOCC3)nc(OCCNC(=O)CCC(=O)N[C@H](C(=O)N3C[C@H](O)C[C@H]3C(=O)NCc3ccc(-c4scnc4C)cc3)C(C)(C)C)n2)c1` [Example 61, N^1—((S)-1-((2S,4R)-4-hydroxy-2-((4-(4-methylthiazol-5-yl)benzyl)carbamoyl)pyrrolidine-1-yl)-3,3-dimethyl-1-oxobutan-2-yl)-N^4-(2-((4-(2-((E)-3-methylbenzylidene) hydrazino)-6-morpholinopyrimidin-2-yl)oxy)ethyl)succinimide]: the DC50 lay in the range of 100 to 10000 nM.
The value for `Cc1cccc(-c2ccn(-c3cc(N4CCOCC4)nc(Oc4ccc(N5CCN(CC6CCN(c7cc8c(cc7F)C(=O)N(C7CCC(=O)NC7=O)C8=O)CC6)CC5)cc4)n3)n2)c1` (stereo not shown) [Example 96, 2-(2,6-Dioxopiperidin-3-yl)-5-fluoro-6-(4-((4-(4-((4-morpholino-6-(3-(m-tolyl)-1H-pyrazol-1-yl)pyrimidin-2-yl)oxy)phenyl)piperazin-1-yl)methyl)piperidin-1-yl)isoindoline-1,3-dione] was 100 to 10000 nM.
For `Cc1cccc(-c2ccn(-c3cc(N4CCOCC4)nc(OCCc4ccc(N5CCN(CC6CCN(c7cc8c(cc7F)C(=O)N(C7CCC(=O)NC7=O)C8=O)CC6)CC5)cc4)n3)n2)c1` (stereo not shown) [Example 91, 2-(2,6-Dioxopiperidin-3-yl)-5-fluoro-6-(4-((4-(4-(2-((4-morpholino-6-(3-(m-tolyl)-1H-pyrazol-1-yl)pyrimidin-2-yl)oxy)ethyl)phenyl)piperazin-1-yl)methyl)piperidin-1-yl)isoindoline-1,3-dione], the DC50 fell in the range of 100 to 10000 nM.
With `Cc1cccc(/C=N/Nc2cc(N3CCOCC3)nc(OCCNC(=O)CCCCCCC(=O)N[C@H](C(=O)N3C[C@H](O)C[C@H]3C(=O)NCc3ccc(-c4scnc4C)cc3)C(C)(C)C)n2)c1` [Example 63, N^1—((S)-1-((2S,4R)-4-hydroxy-2-((4-(4-methylthiazol-5-yl)benzyl)carbamoyl)pyrrolidine-1-yl)-3,3-dimethyl-1-oxobutan-2-yl)-N-(2-((4-(2-((E)-3-methylbenzylidene) hydrazino)-6-morpholinopyrimidin-2-yl)oxy)ethyl)octanediamide], the DC50 was in the range of 100 to 10000 nM.
Turning to `Cc1cccc(/C=N/Nc2cc(N3CCOCC3)nc(OCCc3ccc(NC(=O)CNC(=O)CSC(C)(C)[C@H](NC(=O)C4(F)CC4)C(=O)N4C[C@H](O)C[C@H]4C(=O)NCc4ccc(-c5scnc5C)cc4)cc3)n2)c1` [Example 58, (2S,4R)-1-((R)-2-(1-fluorocyclopropane-1-carboxamido)-3-methyl-3-((2-((2-((4-(2-((4-(2-((E)-3-methylbenzylidene)hydrazino)-6-morpholinopyrimidin-2-yl)oxy)ethyl)phenyl)amino)-2-oxoethyl)amino)-2-oxoethyl)thio)butanoyl)-4-hydroxy-N-(4-(4-methylthiazol-5-yl)benzyl)pyrrolidine-2-carboxamide], the DC50 fell in the range of 100 to 10000 nM.
As to `Cc1cccc(/C=N/Nc2cc(N3CCOCC3)nc(OCCc3ccc(NC(=O)CCCC(=O)N[C@H](C(=O)N4C[C@H](O)C[C@H]4C(=O)NCc4ccc(-c5scnc5C)cc4)C(C)(C)C)cc3)n2)c1` [Example 41, N^1—((S)-1-((2S,4R)-4-hydroxy-2-((4-(4-methylthiazol-5-yl)benzyl)carbamoyl)pyrrolidine-1-yl)-3,3-dimethyl-1-oxobutan-2-yl)-N^5-(4-(2-((4-(2-((E)-3-methylbenzylidene) hydrazino)-6-morpholinopyrimidin-2-yl)oxy)ethyl)phenyl)glutaramide], the DC50 fell in the range of 1 to 100 nM.
As to `Cc1cccc(/C=N/Nc2cc(N3CCOCC3)nc(OCCc3ccc(NC(=O)CCCCCCCCCNc4ccc5c(c4)C(=O)N(C4CCC(=O)NC4=O)C5=O)cc3)n2)c1` (stereo not shown) [Example 19, (E)-10-((2-(2,6-dioxopiperidin-3-yl)-1,3-dioxoisoindolin-5-yl)amino)-N-(4-(2-((4-(2-(3-methylbenzylidene)hydrazino)-6-morpholinopyrimidin-2-yl)oxy)ethyl)phenyl) decanamide], the DC50 fell in the range of 100 to 10000 nM.
`Cc1cccc(/C=N/Nc2cc(N3CCOCC3)nc(OCCc3ccc(NC(=O)CCCCCCCC(=O)N[C@H](C(=O)N4C[C@H](O)C[C@H]4C(=O)NCc4ccc(-c5scnc5C)cc4)C(C)(C)C)cc3)n2)c1` [Example 43, N^1—((S)-1-((2S,4R)-4-hydroxy-2-((4-(4-methylthiazol-5-yl)benzyl)carbamoyl)pyrrolidine-1-yl)-3,3-dimethyl-1-oxobutan-2-yl)-N^9-(4-(2-((4-(2-((E)-3-methylbenzylidene) hydrazino)-6-morpholinopyrimidin-2-yl)oxy)ethyl)phenyl)nonediamide]: the DC50 is 1 to 100 nM.
